Results on one compound are retold here after PMC12613848, “First in human phase 1 study of DT2216, a selective BCL-xL degrader, in patients with relapsed/refractory solid malignancies” (Journal of Hematology & Oncology, 2025).

What all share (format): cell-based
For one assay, the system named is H146 cells (SCLC). The experiment in a line: In vitro IC90, H146 cells. The following applies: Homo sapiens, NCI-H146, DT2216 alone. As for the experimental part:
(§1) Fig. 7 Mean Plasma concentration of DT2216 in 4 patients infused with DT2216 at 0.4 mg/kg over time against in vitro inhibitory concentration 90%(IC90) for various cell lines. SCLC – small cell lung cancer; OC- ovarian carcinoma; T-ALL – T cell acute lymphoblastic leukemia, CTCL – Cutaneous T cell lymphoma TEXT PRINTED IN THE PICTURE: DT2216: IC90 (≈ 1000 nM) for H146 cells (SCLC); IC90 (< 1000 nM) for OVCAR4 cells (OC); IC90 (≈ 500 nM) for MOLT-4 cells (T-ALL); IC90 (< 100 nM) for OVCAR4 cells (OC)* (*In combination with Carboplatin); IC90 (≈ 100 nM) for H146 cells (SCLC)** (**In combination with SN-38/irinotecan); IC90 (30 nM) for Myla cells (CTCL)

In the next assay the test system is OVCAR4 cells (OC). The experiment in a line: In vitro IC90, OVCAR4 cells. The following applies: Homo sapiens, OVCAR-4, DT2216 alone. As to the method: as §1
Another assay concerns MOLT-4 cells (T-ALL). The assay can be described thus: In vitro IC90, MOLT-4 cells. The following applies: Homo sapiens. As to the method:
as §1

The test system of the next assay is Myla cells (CTCL). The assay can be described thus: In vitro IC90, Myla cells. As to the method:
as §1

Regarding `Cc1ncsc1-c1ccc([C@H](C)NC(=O)[C@@H]2C[C@@H](O)CN2C(=O)[C@@H](NC(=O)CCCCCC(=O)N2CCN(CC[C@H](CSc3ccccc3)Nc3ccc(S(=O)(=O)NC(=O)c4ccc(N5CCN(CC6=C(c7ccc(Cl)cc7)CCC(C)(C)C6)CC5)cc4)cc3S(=O)(=O)C(F)(F)F)CC2)C(C)(C)C)cc1` [DT2216], the IC90 with H146 cells (SCLC) was approximately 1000 nM; in the assay with OVCAR4 cells (OC) it was less than 1000 nM; with MOLT-4 cells (T-ALL) it was approximately 500 nM; in the assay with Myla cells (CTCL) it was 30 nM.
